# Measurements taken from PMC4303209, “A novel phosphatidylinositol 3-kinase (PI3K) inhibitor directs a potent FOXO-dependent, p53-independent cell cycle arrest phenotype characterized by the differential induction of a subset of FOXO-regulated genes” (Breast Cancer Research : BCR, 2014).
# System: MCF-7 breast cancer cells
# Test: Microarray gene expression analysis (Agilent whole human genome 4 x 44K; compound vs DMSO, LIMMA log2 fold change)
# Format: cell-based
# Conditions: Apoptosis genes
smiles,measurement,setting,value
Oc1cccc(-c2nc(N3CCOCC3)c3oc4ncccc4c3n2)c1 [PI-103],KALRN log2FC,Gene 8997,0.194
same,SOCS3 log2FC,Gene 9021,-0.840
same,BRSK2 log2FC,Gene 9024,-0.160
same,UBE2M log2FC,Gene 9040,-0.417
same,SART1 log2FC,Gene 9092,-0.00235
same,DNAJA3 log2FC,Gene 9093,0.121
same,RABEP1 log2FC,Gene 9135,0.492
same,ARHGEF2 log2FC,Gene 9181,-0.509
same,DEDD log2FC,Gene 9191,-0.033
same,AURKB log2FC,Gene 9212,-0.231
same,FAIM3 log2FC,Gene 9214,-0.530
same,DLG5 log2FC,Gene 9231,-0.212
same,PNMA1 log2FC,Gene 9240,0.459
same,NOG log2FC,Gene 9241,-0.308
same,CRLF1 log2FC,Gene 9244,0.144
same,STK17B log2FC,Gene 9262,0.429
same,STK17A log2FC,Gene 9263,0.011
same,BCL7C log2FC,Gene 9274,-0.197
same,TAOK2 log2FC,Gene 9344,-0.249
same,SLIT2 log2FC,Gene 9353,0.341
same,SLC9A3R1 log2FC,Gene 9368,-0.528
same,TJP2 log2FC,Gene 9414,0.196
same,NTN1 log2FC,Gene 9423,-0.198
same,ITM2B log2FC,Gene 9445,0.317
same,AIM2 log2FC,Gene 9447,-0.062
same,LY86 log2FC,Gene 9450,-0.203
same,EIF2AK3 log2FC,Gene 9451,0.495
same,HAND2 log2FC,Gene 9464,-0.691
same,ATG5 log2FC,Gene 9474,-0.728
same,ROCK2 log2FC,Gene 9475,0.195
same,MAPK8IP1 log2FC,Gene 9479,0.085
same,SLC25A27 log2FC,Gene 9481,-0.081
same,PSMF1 log2FC,Gene 9491,-0.344
same,LITAF log2FC,Gene 9516,-0.833
same,EEF1E1 log2FC,Gene 9521,0.110
same,BAG4 log2FC,Gene 9530,0.152
same,BAG3 log2FC,Gene 9531,-0.812
same,EI24 log2FC,Gene 9538,-0.583
same,BCAR1 log2FC,Gene 9564,-0.480
same,BRE log2FC,Gene 9577,-0.205
same,RNF7 log2FC,Gene 9616,-0.244
same,TRAF4 log2FC,Gene 9618,-0.924
same,AATK log2FC,Gene 9625,1.492
same,IKBKE log2FC,Gene 9641,-0.667
same,PPM1F log2FC,Gene 9647,-0.302
same,RAPGEF2 log2FC,Gene 9693,0.948
same,ESPL1 log2FC,Gene 9700,0.721
same,HERPUD1 log2FC,Gene 9709,0.170
same,SLK log2FC,Gene 9748,0.857
same,BCLAF1 log2FC,Gene 9774,0.632
same,KIAA0141 log2FC,Gene 9812,0.468
same,RB1CC1 log2FC,Gene 9821,1.484
same,ARHGEF11 log2FC,Gene 9826,-0.060
same,ARHGEF17 log2FC,Gene 9828,0.506
same,MELK log2FC,Gene 9833,0.254
same,PSMD6 log2FC,Gene 9861,0.158
same,ARNT2 log2FC,Gene 9915,0.025
same,THOC1 log2FC,Gene 9984,0.375
same,CASP8AP2 log2FC,Gene 9994,0.614
same,SRA1 log2FC,Gene 10011,-0.916
same,PDCD6IP log2FC,Gene 10015,0.603
same,PDCD6 log2FC,Gene 10016,-0.491
same,BCL2L11 log2FC,Gene 10018,0.088
same,PARP2 log2FC,Gene 10038,0.326
same,DNAJB6 log2FC,Gene 10049,0.183
same,DNM1L log2FC,Gene 10059,0.444
same,PDCD7 log2FC,Gene 10081,0.098
same,PPIF log2FC,Gene 10105,-1.136
same,FEM1B log2FC,Gene 10116,-0.374
same,BCAP31 log2FC,Gene 10134,-0.357
same,RBM5 log2FC,Gene 10181,0.638
same,RNF41 log2FC,Gene 10193,0.278
same,PSME3 log2FC,Gene 10197,-1.222
same,DHRS2 log2FC,Gene 10202,0.281
same,TOPORS log2FC,Gene 10210,0.598
same,PSMD14 log2FC,Gene 10213,0.153
same,SPRY2 log2FC,Gene 10253,-0.930
same,NET1 log2FC,Gene 10276,0.503
same,UBE4B log2FC,Gene 10277,-0.565
same,SAP18 log2FC,Gene 10284,0.198
same,TRAIP log2FC,Gene 10293,0.566
same,MAEA log2FC,Gene 10296,-0.106
same,PAK4 log2FC,Gene 10298,-0.420
same,RTN3 log2FC,Gene 10313,-0.192
same,CITED2 log2FC,Gene 10370,2.312
same,SEMA3A log2FC,Gene 10371,0.050
same,DLC1 log2FC,Gene 10395,-1.010
same,GNB2L1 log2FC,Gene 10399,-0.033
same,YAP1 log2FC,Gene 10413,0.172
same,CFDP1 log2FC,Gene 10428,0.411
same,C1D log2FC,Gene 10438,0.246
same,ACAA2 log2FC,Gene 10449,0.115
same,VAV3 log2FC,Gene 10451,2.272
same,STK25 log2FC,Gene 10494,0.213
same,SEMA4D log2FC,Gene 10507,0.274
same,MYBBP1A log2FC,Gene 10514,-0.303
same,CIB1 log2FC,Gene 10519,-0.082
same,ATG7 log2FC,Gene 10533,-0.414
same,HTATIP2 log2FC,Gene 10553,0.204
same,ERN2 log2FC,Gene 10595,-0.680
same,RBCK1 log2FC,Gene 10616,-0.315
same,STAMBP log2FC,Gene 10617,0.275
same,IVNS1ABP log2FC,Gene 10625,0.167
same,TXNIP log2FC,Gene 10628,2.206
same,RRAGA log2FC,Gene 10670,-0.315
same,PNMA2 log2FC,Gene 10687,-0.058
same,CHL1 log2FC,Gene 10752,0.036
same,NES log2FC,Gene 10763,-0.277
same,PLK2 log2FC,Gene 10769,-0.927
same,ZMYND11 log2FC,Gene 10771,0.395
same,NEK6 log2FC,Gene 10783,-0.675
same,NCKAP1 log2FC,Gene 10787,0.619
same,ZNF268 log2FC,Gene 10795,0.176
same,PPP1R13L log2FC,Gene 10848,0.642
same,LILRB1 log2FC,Gene 10859,-0.213
same,MRPS30 log2FC,Gene 10884,0.033
same,PROKR1 log2FC,Gene 10887,-0.254
same,PPARGC1A log2FC,Gene 10891,0.154
same,MALT1 log2FC,Gene 10892,-0.458
same,JTB log2FC,Gene 10899,-0.072
same,BLCAP log2FC,Gene 10904,-0.472
same,EDAR log2FC,Gene 10913,-0.571
same,RNPS1 log2FC,Gene 10921,-0.284
same,FASTK log2FC,Gene 10922,-0.187
same,PRDX3 log2FC,Gene 10935,0.328
same,MLLT11 log2FC,Gene 10962,-0.868
same,YWHAQ log2FC,Gene 10971,0.144
same,IL24 log2FC,Gene 11009,-0.212
same,RIPK3 log2FC,Gene 11035,-0.030
same,PIM2 log2FC,Gene 11040,-0.544
same,DIDO1 log2FC,Gene 11083,-0.398
same,FAF1 log2FC,Gene 11124,0.215
same,CAPN10 log2FC,Gene 11132,-0.148
same,NISCH log2FC,Gene 11188,0.538
same,CHEK2 log2FC,Gene 11200,0.111
same,AKAP13 log2FC,Gene 11214,-0.354
same,DDX20 log2FC,Gene 11218,0.280
same,PDCD10 log2FC,Gene 11235,0.466
same,GABARAP log2FC,Gene 11337,0.401
same,ATF5 log2FC,Gene 22809,-1.254
same,PHLDA1 log2FC,Gene 22822,-2.154
same,CARD8 log2FC,Gene 22900,0.156
same,SNW1 log2FC,Gene 22938,0.538
same,TRIM32 log2FC,Gene 22954,-0.315
same,ACIN1 log2FC,Gene 22985,-0.228
same,TRIM35 log2FC,Gene 23087,0.205
same,KIF1B log2FC,Gene 23095,0.163
same,PSME4 log2FC,Gene 23198,-0.072
same,ARHGEF9 log2FC,Gene 23229,0.137
same,PACS2 log2FC,Gene 23241,-0.041
same,MCF2L log2FC,Gene 23263,0.306
same,TRIM2 log2FC,Gene 23321,0.862
same,ARHGEF12 log2FC,Gene 23365,0.170
same,PPP1R13B log2FC,Gene 23368,0.064
same,NCSTN log2FC,Gene 23385,0.292
same,ADNP log2FC,Gene 23394,0.175
same,SIRT1 log2FC,Gene 23411,1.169
